The text below walks through data of patent US20070128217A1 (priority 2003, published 2007).

The test system of assay [1] is antibodies in sera from SARS patients (sera 1a, 1b, 2, 6, 37, 62, London, SARS-yellow, SARS-green). The class given is binding, human. On the set-up: Binding of serum 6 to linear peptides of protein X1 of SARS-CoV Urbani / Binding of serum 37 to linear peptides of protein X1 of SARS-CoV Urbani / Binding of serum 6 to looped/cyclic peptide (PEPSCAN-ELISA) / Binding of serum 37 to looped/cyclic peptide (PEPSCAN-ELISA) / Binding of serum 37 to looped/cyclic peptides of protein X1 of SARS-CoV Urbani / Binding of serum 6 to linear peptides of protein X2 / Binding of serum 37 to linear peptides of protein X2 / Binding of serum 37 to looped/cyclic peptides of protein X2 of SARS-CoV Urbani / Binding of serum 6 to linear peptides of protein M of SARS-CoV Urbani / Binding of serum 37 to linear peptides of protein M of SARS-CoV Urbani / Binding of serum 6 to looped/cyclic peptides of protein M of SARS-CoV Urbani / Binding of serum 37 to looped/cyclic peptides of protein M of SARS-CoV Urbani / Binding of serum 6 to linear peptides of protein X3 of SARS-CoV Urbani / Binding of serum 37 to linear peptides of protein X3 of SARS-CoV Urbani / Binding of serum 37 to looped/cyclic peptides of protein X3 of SARS-CoV Urbani / Binding of serum 6 to linear peptides of protein X4 of SARS-CoV Urbani / Binding of serum 37 to linear peptides of protein X4 of SARS-CoV Urbani / Binding of serum 37 to looped/cyclic peptides of protein X4 of SARS-CoV Urbani / Binding of serum 6 to linear peptides of protein X5 of SARS-CoV Urbani / Binding of serum 37 to linear peptides of protein X5 of SARS-CoV Urbani / Binding of serum 37 to looped/cyclic peptides of protein X5 of SARS-CoV Urbani / Binding of serum 6 to linear peptides of protein N of SARS-CoV Urbani / Binding of serum 37 to linear peptides of protein N of SARS-CoV Urbani / Binding of serum 6 to linear peptide (PEPSCAN-ELISA) / Binding of serum 1a to looped/cyclic peptides of protein N of SARS-CoV Urbani / Binding of serum 1b to looped/cyclic peptides of protein N of SARS-CoV Urbani / Binding of serum 2 to looped/cyclic peptides of protein N of SARS-CoV Urbani / Binding of serum 6 to looped/cyclic peptides of protein N of SARS-CoV Urbani / Binding of serum 37 to looped/cyclic peptides of protein N of SARS-CoV Urbani / Binding of serum 62 to looped/cyclic peptides of protein N of SARS-CoV Urbani / Binding of serum London to looped/cyclic peptides of protein N of SARS-CoV Urbani / Binding of serum SARS-green to looped/cyclic peptides of protein N of SARS-CoV Urbani: unit not given here.

Assay [2] relates to control sera (pooled serum of ten healthy LUMC hospital workers; commercial negative donor pooled serum from the Dutch bloodbank). The class given is binding, human. More on the design: Binding of Control serum LUMC to linear peptides / Binding of Control serum Blood-bank to linear peptides / Binding of Control serum LUMC to looped peptides / Binding of Control Serum Blood-Bank to Looped peptides / Binding of Control serum LUMC to linear peptides of the protein M of SARS-CoV Urbani / Binding of Control serum Blood-bank to linear peptides of the protein M of SARS-CoV Urbani / Binding of Control serum LUMC to looped peptides of the protein M of SARS-CoV Urbani / Binding of Control Serum Blood-Bank to Looped peptides of the protein M of SARS-CoV Urbani: unit not given here.

Assay [3] deals with rabbit serum obtained by immunizing a rabbit with the SARS-CoV strain Frankfurt 1. The class given is binding. On the set-up: Binding of a rabbit serum to linear peptides / Binding of a rabbit serum to looped peptides / Rabbit serum linear peptides / Rabbit serum looped peptides / Binding of a rabbit serum to linear peptides of protein N of SARS-CoV Urbani (Rabbit serum linear peptides) / Binding of a rabbit serum to looped/cyclic peptides of protein N of SARS-CoV Urbani (Rabbit serum looped peptides): unit not given here.

Consider HSSSLTSLLKTHRMC, for which, in assay [1], the “Binding of serum 1a to linear peptides of protein X2” value was determined as 0.6, the “Binding of serum 1a to looped/cyclic peptides of protein X2 of SARS-CoV Urbani” value was found to be 0.4, the “Binding of serum 1b to linear peptides of protein X2” value is given as 0.5 and the “Binding of serum 1b to looped/cyclic peptides of protein X2 of SARS-CoV Urbani” value is given as 0.4. In assay [1], the “Binding of serum 2 to linear peptides of protein X2” value worked out at 0.3, the “Binding of serum 2 to looped/cyclic peptides of protein X2 of SARS-CoV Urbani” value was 0.3, the “Binding of serum 6 to linear peptides of protein X2” value is 0.5 and the “Binding of serum 6 to looped/cyclic peptides of protein X2 of SARS-CoV Urbani” value was 0.2. Besides, in assay [1], the “Binding of serum 37 to linear peptides of protein X2” value is on record as 0.5, the “Binding of serum 37 to looped/cyclic peptides of protein X2 of SARS-CoV Urbani” value was 0.3, the “Binding of serum 62 to linear peptides of protein X2” value turned out to be 0.6 and the “Binding of serum 62 to looped/cyclic peptides of protein X2 of SARS-CoV Urbani” value turned out to be 0.4. In assay [1], the “Binding of serum London to linear peptides of protein X2” value came out at 0.5, the “Binding of serum London to looped/cyclic peptides of protein X2 of SARS-CoV Urbani” value is 0.2, the “Binding of serum SARS-green to linear peptides of protein X2” value came to 0.5 and the “Binding of serum SARS-green to looped/cyclic peptides of protein X2 of SARS-CoV Urbani” value amounted to 0.3. In assay [1], the “Binding of serum SARS-yellow to linear peptides of protein X2” value is reported as 0.4 and the “Binding of serum SARS-yellow to looped/cyclic peptides of protein X2 of SARS-CoV Urbani” value came out at 0.4. For the same sequence, in assay [2], the “Binding of Control Serum Blood-Bank to Looped peptides” value is reported as 0.5, the “Binding of Control serum Blood-bank to linear peptides” value turned out to be 0.8, the “Binding of Control serum LUMC to linear peptides” value is given as 0.4 and the “Binding of Control serum LUMC to looped peptides” value is recorded as 0.5. Also, in assay [3], the “Binding of a rabbit serum to linear peptides” value is reported as 0.2 and the “Binding of a rabbit serum to looped peptides” value was 0.5.

For HTIDGSSGVANPAMD, in assay [1], the “Binding of serum 1a to linear peptides of protein X1 of SARS-CoV Urbani” value turned out to be 0.7, the “Binding of serum 1a to looped/cyclic peptides of protein X1 of SARS-CoV Urbani” value was 0.3, the “Binding of serum 1b to linear peptides of protein X1 of SARS-CoV Urbani” value came out at 0.7 and the “Binding of serum 1b to looped/cyclic peptides of protein X1 of SARS-CoV Urbani” value is 0.2. Further, in assay [1], the “Binding of serum 2 to linear peptides of protein X1 of SARS-CoV Urbani” value was 0.5, the “Binding of serum 2 to looped/cyclic peptides of protein X1 of SARS-CoV Urbani” value came to 0.1, the “Binding of serum 6 to linear peptides of protein X1 of SARS-CoV Urbani” value is 0.5 and the “Binding of serum 6 to looped/cyclic peptides of protein X1 of SARS-CoV Urbani” value is 0.1. Further, in assay [1], the “Binding of serum 37 to linear peptides of protein X1 of SARS-CoV Urbani” value came to 0.7, the “Binding of serum 37 to looped/cyclic peptides of protein X1 of SARS-CoV Urbani” value is recorded as 0.3, the “Binding of serum 62 to linear peptides of protein X1 of SARS-CoV Urbani” value was 0.7 and the “Binding of serum 62 to looped/cyclic peptides of protein X1 of SARS-CoV Urbani” value was found to be 0.2. Further, in assay [1], the “Binding of serum London to linear peptides of protein X1 of SARS-CoV Urbani” value stood at 0.3, the “Binding of serum London to looped/cyclic peptides of protein X1 of SARS-CoV Urbani” value is given as 0.1, the “Binding of serum SARS-green to linear peptides of protein X1 of SARS-CoV Urbani” value amounted to 0.6 and the “Binding of serum SARS-green to looped/cyclic peptides of protein X1 of SARS-CoV Urbani” value is 0.1. Further, in assay [1], the “Binding of serum SARS-yellow to linear peptides of protein X1 of SARS-CoV Urbani” value was found to be 0.4 and the “Binding of serum SARS-yellow to looped/cyclic peptides of protein X1 of SARS-CoV Urbani” value was 0.1. For the same sequence, in assay [2], the “Binding of Control Serum Blood-Bank to Looped peptides” value turned out to be 0.3, the “Binding of Control serum Blood-bank to linear peptides” value worked out at 0.4, the “Binding of Control serum LUMC to linear peptides” value was 0.5 and the “Binding of Control serum LUMC to looped peptides” value is 0.2. In addition, in assay [3], the “Binding of a rabbit serum to linear peptides” value stood at 0.1 and the “Binding of a rabbit serum to looped peptides” value is listed as 0.4.

Turning to IAIWNLDVIISSIVR, in assay [1], the “Binding of serum 1a to linear peptides of protein X3 of SARS-CoV Urbani” value amounted to 0.7, the “Binding of serum 1a to looped/cyclic peptides of protein X3 of SARS-CoV Urbani” value was 0.7, the “Binding of serum 1b to linear peptides of protein X3 of SARS-CoV Urbani” value is on record as 0.5 and the “Binding of serum 1b to looped/cyclic peptides of protein X3 of SARS-CoV Urbani” value is given as 0.3. In assay [1], the “Binding of serum 2 to linear peptides of protein X3 of SARS-CoV Urbani” value came to 0.6, the “Binding of serum 2 to looped/cyclic peptides of protein X3 of SARS-CoV Urbani” value is on record as 0.6, the “Binding of serum 6 to linear peptides of protein X3 of SARS-CoV Urbani” value is recorded as 0.5 and the “Binding of serum 6 to looped/cyclic peptides of protein X3 of SARS-CoV Urbani” value is given as 0.4. Besides, in assay [1], the “Binding of serum 37 to linear peptides of protein X3 of SARS-CoV Urbani” value was determined as 0.5, the “Binding of serum 37 to looped/cyclic peptides of protein X3 of SARS-CoV Urbani” value is 0.6, the “Binding of serum 62 to linear peptides of protein X3 of SARS-CoV Urbani” value amounted to 0.6 and the “Binding of serum 62 to looped/cyclic peptides of protein X3 of SARS-CoV Urbani” value is recorded as 0.5. Moreover, in assay [1], the “Binding of serum London to linear peptides of protein X3 of SARS-CoV Urbani” value is 0.6, the “Binding of serum London to looped/cyclic peptides of protein X3 of SARS-CoV Urbani” value is 0.2, the “Binding of serum SARS-green to linear peptides of protein X3 of SARS-CoV Urbani” value is reported as 0.3 and the “Binding of serum SARS-green to looped/cyclic peptides of protein X3 of SARS-CoV Urbani” value worked out at 0.0. Moreover, in assay [1], the “Binding of serum SARS-yellow to linear peptides of protein X3 of SARS-CoV Urbani” value is given as 0.4 and the “Binding of serum SARS-yellow to looped/cyclic peptides of protein X3 of SARS-CoV Urbani” value amounted to 0.6. In assay [2], the “Binding of Control Serum Blood-Bank to Looped peptides of the protein X3 of SARS-CoV Urbani” value is reported as 0.7, the “Binding of Control serum Blood-bank to linear peptides of the protein X3 of SARS-CoV Urbani” value is on record as 0.6, the “Binding of Control serum LUMC to linear peptides of the protein X3 of SARS-CoV Urbani” value came to 0.5 and the “Binding of Control serum LUMC to looped peptides of the protein X3 of SARS-CoV Urbani” value came out at 0.7. Further, in assay [3], the “Rabbit serum linear peptides” value was 0.3 and the “Rabbit serum looped peptides” value was 0.3.

Regarding ICNLLLLFVTIYSHL, in assay [1], the “Binding of serum 1a to linear peptides of protein X1 of SARS-CoV Urbani” value turned out to be 0.6, the “Binding of serum 1a to looped/cyclic peptide (PEPSCAN-ELISA)” value is on record as 0.4, the “Binding of serum 1b to linear peptides of protein X1 of SARS-CoV Urbani” value is listed as 0.6 and the “Binding of serum 1b to looped/cyclic peptide (PEPSCAN-ELISA)” value was found to be 0.3. Also, in assay [1], the “Binding of serum 2 to linear peptides of protein X1 of SARS-CoV Urbani” value is reported as 0.5, the “Binding of serum 2 to looped/cyclic peptide (PEPSCAN-ELISA)” value is reported as 0.4, the “Binding of serum 6 to linear peptides of protein X1 of SARS-CoV Urbani” value was found to be 0.4 and the “Binding of serum 6 to looped/cyclic peptide (PEPSCAN-ELISA)” value came out at 0.2. Besides, in assay [1], the “Binding of serum 37 to linear peptides of protein X1 of SARS-CoV Urbani” value is reported as 0.6, the “Binding of serum 37 to looped/cyclic peptide (PEPSCAN-ELISA)” value is reported as 0.4, the “Binding of serum 62 to linear peptides of protein X1 of SARS-CoV Urbani” value came to 0.5 and the “Binding of serum 62 to looped/cyclic peptide (PEPSCAN-ELISA)” value is listed as 0.5. In assay [1], the “Binding of serum London to linear peptides of protein X1 of SARS-CoV Urbani” value was 0.2, the “Binding of serum London to looped/cyclic peptide (PEPSCAN-ELISA)” value is 0.2, the “Binding of serum SARS-green to linear peptides of protein X1 of SARS-CoV Urbani” value worked out at 0.3 and the “Binding of serum SARS-green to looped/cyclic peptide (PEPSCAN-ELISA)” value stood at 0.2. In addition, in assay [1], the “Binding of serum SARS-yellow to linear peptides of protein X1 of SARS-CoV Urbani” value was determined as 0.4 and the “Binding of serum SARS-yellow to looped/cyclic peptide (PEPSCAN-ELISA)” value is 0.4. In addition, in assay [2], the “Binding of Control Serum Blood-Bank to Looped peptides” value stood at 0.5, the “Binding of Control serum Blood-bank to linear peptides” value is on record as 0.5, the “Binding of Control serum LUMC to linear peptides” value amounted to 0.5 and the “Binding of Control serum LUMC to looped peptides” value is recorded as 0.4. In addition, in assay [3], the “Binding of a rabbit serum to linear peptides” value is reported as 0.2 and the “Binding of a rabbit serum to looped peptides” value stood at 0.5.
